This is an account of results in ChEMBL document CHEMBL4020846 (J Med Chem, 2018).

One may read the EC50 as the concentration needed to bring the measured effect to its halfway point.

Calls of active or inactive are those of the source. The rule behind the calls is not given here.

Data set [1] is described as follows: Cytotoxicity against HEK-Blue cells over-expressing NOD2 assessed as residual metabolic activity at 20 uM after 18 hrs by CellTiter 96 aqueous one solution cell proliferation assay relative to control. In kind it is ADME, cell-based. The conditions noted are these: human, read-out: Activity.
The target of data set [2] is T1, Nucleotide-binding oligomerization domain-containing protein 2 (Homo sapiens, UniProt Q9HC29). The data set is described as follows: Agonist activity at human NOD2 expressed in HEK-Blue cells assessed as induction of NF-kB transcriptional activity at 2 uM after 18 hrs by SEAP reporter gene assay relative to control. In kind it is cell-based.
T1 sequence (Q9HC29 whole entry, the tested form may be a part): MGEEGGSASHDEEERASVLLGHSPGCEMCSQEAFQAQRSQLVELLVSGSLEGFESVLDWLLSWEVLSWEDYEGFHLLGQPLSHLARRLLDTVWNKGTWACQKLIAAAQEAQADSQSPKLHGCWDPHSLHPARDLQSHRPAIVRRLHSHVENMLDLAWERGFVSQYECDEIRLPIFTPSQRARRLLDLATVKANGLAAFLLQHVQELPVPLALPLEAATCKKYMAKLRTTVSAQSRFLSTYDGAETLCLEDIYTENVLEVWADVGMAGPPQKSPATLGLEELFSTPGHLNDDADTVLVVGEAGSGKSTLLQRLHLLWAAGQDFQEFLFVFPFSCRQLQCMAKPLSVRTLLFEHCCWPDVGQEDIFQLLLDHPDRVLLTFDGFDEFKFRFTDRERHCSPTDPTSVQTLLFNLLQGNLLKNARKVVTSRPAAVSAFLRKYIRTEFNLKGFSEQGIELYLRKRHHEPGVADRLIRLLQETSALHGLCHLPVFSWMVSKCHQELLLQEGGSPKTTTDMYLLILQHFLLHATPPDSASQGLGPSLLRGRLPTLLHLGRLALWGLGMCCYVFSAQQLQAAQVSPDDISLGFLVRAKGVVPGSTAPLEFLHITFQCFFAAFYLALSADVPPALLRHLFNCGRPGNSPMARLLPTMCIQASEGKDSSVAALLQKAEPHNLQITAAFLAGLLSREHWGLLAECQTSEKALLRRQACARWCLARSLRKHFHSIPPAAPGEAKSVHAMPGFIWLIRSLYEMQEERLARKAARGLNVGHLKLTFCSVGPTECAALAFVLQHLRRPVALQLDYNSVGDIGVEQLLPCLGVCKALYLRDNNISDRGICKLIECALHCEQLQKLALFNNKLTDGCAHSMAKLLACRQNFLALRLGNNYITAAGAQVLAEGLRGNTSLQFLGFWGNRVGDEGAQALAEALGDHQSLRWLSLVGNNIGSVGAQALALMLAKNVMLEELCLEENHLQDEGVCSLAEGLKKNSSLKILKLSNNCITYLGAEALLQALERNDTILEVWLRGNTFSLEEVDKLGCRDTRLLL
Data set [3] can be described thus: Drug level in HEK293 cells cytosol at 2 uM after 18 hrs by LC-MS analysis. The format is ADME, cell-based. The settings on record: human.
The target in data set [4] is T1, Nucleotide-binding oligomerization domain-containing protein 2. Description: Agonist activity at human NOD2 expressed in HEK-Blue cells assessed as induction of NF-kB transcriptional activity after 18 hrs by SEAP reporter gene assay. In kind it is cell-based. On the technique in general: A reporter such as luciferase makes a cellular process visible.
Data set [5] shares this target. The data set is described as follows: Agonist activity at human NOD2 expressed in HEK-Blue cells assessed as induction of NF-kB transcriptional activity at 2 uM after 18 hrs in presence of NOD2 antagonist GSK-669 by SEAP reporter gene assay. The format is cell-based.
Data set [6] can be described thus: Drug metabolism in HEK293 cells assessed as retention time at 2 uM by LC-MS analysis. The format is ADME, cell-based. The settings on record: human, hek293, 2 µM.
Data set [7] in a line: Stability in HEK293 cells at 2 uM up to 18 hrs by LC-MS analysis. The format is ADME, cell-based. The conditions noted are these: human, hek293, 18 h.
For data set [8], the target named is T2, Nucleotide-binding oligomerization domain-containing protein 1 (Homo sapiens) (UniProt Q9Y239).
T2 sequence (whole entry): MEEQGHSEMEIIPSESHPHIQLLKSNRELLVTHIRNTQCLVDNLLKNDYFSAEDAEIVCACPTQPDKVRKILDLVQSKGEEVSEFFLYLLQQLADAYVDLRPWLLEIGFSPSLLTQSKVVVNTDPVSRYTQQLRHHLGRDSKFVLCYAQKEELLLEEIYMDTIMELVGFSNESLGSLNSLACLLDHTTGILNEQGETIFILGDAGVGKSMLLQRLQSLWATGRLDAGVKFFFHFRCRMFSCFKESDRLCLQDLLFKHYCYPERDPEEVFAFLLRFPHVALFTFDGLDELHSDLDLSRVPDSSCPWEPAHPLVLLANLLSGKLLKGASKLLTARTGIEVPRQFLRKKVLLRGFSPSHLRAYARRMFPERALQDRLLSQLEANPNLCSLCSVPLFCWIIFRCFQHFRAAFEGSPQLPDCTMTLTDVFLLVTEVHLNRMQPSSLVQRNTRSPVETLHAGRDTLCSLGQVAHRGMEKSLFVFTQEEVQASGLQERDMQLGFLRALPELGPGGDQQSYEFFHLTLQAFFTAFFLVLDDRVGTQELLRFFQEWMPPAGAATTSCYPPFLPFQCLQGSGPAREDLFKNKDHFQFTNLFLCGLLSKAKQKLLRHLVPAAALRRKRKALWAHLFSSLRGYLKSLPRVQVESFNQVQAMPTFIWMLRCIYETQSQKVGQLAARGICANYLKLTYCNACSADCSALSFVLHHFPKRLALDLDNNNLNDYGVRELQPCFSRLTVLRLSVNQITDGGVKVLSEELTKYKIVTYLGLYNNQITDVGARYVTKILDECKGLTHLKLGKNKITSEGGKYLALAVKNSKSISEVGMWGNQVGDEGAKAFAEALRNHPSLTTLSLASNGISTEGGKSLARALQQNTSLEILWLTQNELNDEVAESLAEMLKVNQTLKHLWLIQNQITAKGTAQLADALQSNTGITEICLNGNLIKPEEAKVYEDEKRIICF
Description: Agonist activity at human NOD1 expressed in HEK-Blue cells assessed as induction of NF-kB transcriptional activity at 20 uM after 18 hrs by SEAP reporter gene assay. In kind it is cell-based.

The target of data set [9] is T1, Nucleotide-binding oligomerization domain-containing protein 2. The data set is described as follows: Agonist activity at human NOD2 expressed in HEK-Blue cells assessed as induction of NF-kB transcriptional activity at 20 uM after 18 hrs by SEAP reporter gene assay. In kind it is cell-based.
The subject of data set [10] is PBMC. The data set is described as follows: Immunostimulatory activity in human PBMC assessed as increase in IL-17A release at 2 uM after 18 hrs in presence of LPS by flow cytometry. The format is functional, cell-based. (In general: A flow cytometer gives signals particle by particle.)
Data set [11] relates to PBMC. The data set is described as follows: Immunostimulatory activity in human PBMC assessed as increase in IL-2 release at 2 uM after 18 hrs in presence of LPS by flow cytometry. The format is functional, cell-based.
Data set [12] deals with PBMC. Description: Immunostimulatory activity in human PBMC assessed as increase in IL-6 release at 2 uM after 18 hrs in presence of LPS by flow cytometry relative to control. The format is functional.
Data set [13] in a line: Pyrogenic activity in Atlantic horseshoe crab blood limulus amebocyte lysate by bacterial endotoxin test. The format is ADME. The conditions noted are these: limulus polyphemus.
Data set [14] has as its system PBMC. The data set is described as follows: Immunostimulatory activity in human PBMC assessed as increase in IL-4 release at 2 uM after 18 hrs in presence of LPS by flow cytometry. The format is functional, cell-based.
For data set [15], the system named is PBMC. The data set is described as follows: Immunostimulatory activity in human PBMC assessed as increase in IL-10 release at 2 uM after 18 hrs in presence of LPS by flow cytometry relative to control. The format is functional.
Data set [16] has as its system PBMC. The data set is described as follows: Immunostimulatory activity in human PBMC assessed as increase in TNF-alpha release at 2 uM after 18 hrs in presence of LPS by flow cytometry relative to control. The format is functional.
Data set [17] relates to PBMC. Description: Immunostimulatory activity in human PBMC assessed as increase in IL-10 release at 2 uM after 18 hrs by flow cytometry. The format is functional, cell-based.
Data set [18] relates to PBMC. The data set is described as follows: Immunostimulatory activity in human PBMC assessed as increase in IFNgamma release at 2 uM after 18 hrs in presence of LPS by flow cytometry. In kind it is functional, cell-based.
Data set [19] deals with PBMC. The data set is described as follows: Immunostimulatory activity in human PBMC assessed as increase in TNF-alpha release at 2 uM after 18 hrs by flow cytometry. In kind it is functional, cell-based.
Data set [20] can be described thus: Drug uptake in HEK293 cells cytosol at 2 uM after 18 hrs by LC-MS analysis. In kind it is ADME, cell-based. The conditions noted are these: human.
Data set [21] relates to PBMC. The data set is described as follows: Immunostimulatory activity in human PBMC assessed as increase in IL-6 release at 2 uM after 18 hrs by flow cytometry. In kind it is functional, cell-based.
The test system of data set [22] is Mus musculus. Description: Immunoadjuvant activity in ovalbumin-induced NIH/OlaHsd mouse model of adjuvancy assessed as induction of ovalbumin-specific humoral immune response by measuring increase in anti-OVA IgG level in serum at 200 ug, sc using liposome encapsulated compound measured on day 7 post second booster by ELISA. In kind it is functional, organism-based. In general terms: An ELISA detects its analyte on a solid surface through an enzyme-linked reagent.

Data set [23] concerns Mus musculus. Description: Immunoadjuvant activity in ovalbumin-induced NIH/OlaHsd mouse model of adjuvancy assessed as modulation of Th1/Th2-bias of induced immune response by measuring ratio of anti-OVA IgG1 to anti-OVA IgG2a level in serum at 200 ug, sc using liposome encapsulated compound measured on day 7 post second booster by ELISA (reference value: 1.69 +/- 0.28). In kind it is functional.

For `COc1cc(/C=C/C(=O)NCC(=O)N[C@H](C(=O)N[C@H](CCC(=O)O)C(=O)O)C(C)C)ccc1O`, the viability at 18 h, 20 µM in [1] is over 80%. Besides, the fold change (FC) in data set [2] stood at 2.7. Also, the Drug uptake in data set [3] is 0.4 µM. In addition, the half-maximal effective concentration (EC50) in data set [4] was 6.98 µM. In addition, the result in [5] and in [8] was inactive. Moreover, the Retention_time in data set [6] amounted to 2.88 min. For the same molecule, in data set [7], the Stability entry is “Stable”. The outcome in [9] was Active.
Take `CCOC(=O)CC[C@@H](NC(=O)[C@@H](NC(=O)CNC(=O)/C=C/c1ccc(O)c(OC)c1)C(C)C)C(=O)OCC`: the result in data set [10], in [11], in data set [14], in data set [17], in data set [18] and in [19] was Active. In addition, the result in data set [21] and in [22] was Active. Moreover, the entries for the “fold change (FC)” value in data set [12], in data set [15] and in [16] were 4, 5 and 3, respectively. Also, in [1], the viability at 18 h, 20 µM is over 80%. Moreover, the Activity entry in data set [13] is recorded as “Non-Toxic”. The Drug uptake stood at 0.13 µM in data set [3] and 40% in data set [20]. The Retention_time in data set [6] is 3.53 min. In addition, the Stability entry in [7] is given as “Stable”. Besides, the result in data set [8] was inactive.
As for `CC(=O)N[C@H]1C(O)O[C@H](CO)[C@@H](O)[C@@H]1O[C@H](C)C(=O)N[C@@H](C)C(=O)N[C@H](CCC(=O)O)C(N)=O` (stereo partly specified) [MURAMYL DIPEPTIDE], the Ratio in data set [23] is recorded as 133. Besides, the “log(ratio)” value in data set [23] is recorded as 2.37. Besides, the outcome in data set [10], in data set [11], in data set [14], in data set [17], in data set [18] and in data set [19] was Active. Besides, the outcome in data set [21] and in data set [22] was Active. Also, the “fold change (FC)” value in data set [12] was determined as 4; in data set [2] it was 5.6; in [15] it was 5; in data set [16], 3.6. Further, the viability at 18 h, 20 µM in [1] is over 80%. The Activity entry in data set [4] was “Dose-dependent effect”. Besides, the EC50 in data set [4] turned out to be 0.092 µM. For the same molecule, the result in data set [5] and in data set [8] was inactive.
